Format in all cases: physicochemical
What all share (settings): compared to the known hydrochloride salt

Series [1] is described as follows: Dissolution behavior / dissolution velocity of the salts.
Series [2] can be described thus: Solubility of the salt.
A short description of series [3]: Stability of the salts.

SMILES strings stand for the structures.

For the compound `Cc1ccc(S(=O)(=O)O)cc1.Cn1cc(-c2ccc(S(=O)(=O)n3ccc(/C=C/C(=O)Nc4ccccc4N)c3)cc2)cn1` [toluenesulfonate salt, (E)-N-(2-Amino-phenyl)-3-{1-[4-(1-methyl-1H-pyrazol-4-yl)-benzenesulfonyl]-H-pyrrol-3-yl}-acrylamide toluene-4-sulfonate], the dissolution velocity result in series [1] is given as “particularly high”. Also, the solubility entry in series [2] was “high”. Also, the stability entry in series [3] is “enhanced”.

For the origin of these results see patent publication US8557858B2, “(E)-N-(2-amino-phenyl)-3-{1-[4-(l-methyl-1H-pyrazol-4-yl)-benzenesulfonyl]-1H-pyrrol-3-yl}-acrylamide salts” (4SC AG, priority 2008, dated 2013).
